The IC50 is the concentration needed to halve the response being measured. Read a high IC50 as weaker potency in that assay.

The record followed here is patent US11603368B2, “Fused thiophene derivatives and their uses” (ENYO PHARMA, priority 2018, dated 2023).

This test deals with H1N1 (influenza A/New Caledonia/20/99). In words: Antiviral effect on A549 cells infected with H1N1. To be noted: Human A549 cells, MOI of 0.1, 48 h post-infection, MUNANA hydrolysis readout. It is filed as cell-based, H1N1 A/New Caledonia/20/99 virus. The procedure:
The antiviral effect of the compounds of the invention has been tested on A549 cell lines infected with H1N1 (influenza A/New Caledonia/20/99).
Human A549 cells (80,000 cells/well in a 96 well plate) were treated with a range of concentration of test molecules and immediately infected by H1N1 A/New Caledonia/20/99 virus (clinical isolate) at MOI of 0.1 in DMEM/1% Penicillin/streptomycin supplemented with 0.25 μg/ml TPCK trypsin (Sigma) and incubated at 37° C. in 5% CO2. 48 h post-infection, supernatants (25 μl) were collected and transferred into a 96-well black flat-bottom plate, mixed with 25 μl PBS with Ca++/Mg++(Thermo Fisher) and 50 μl of 2′-(4-Methylumbelliferyl)-α-D-N-acetylneuraminic acid sodium salt hydrate stock-solution (20 μM, MUNANA, Sigma). Plates were incubated 1 h at 37° C. and reaction is stopped by adding 100 μl of Stop Solution (glycine 0.1 M pH10.7/25% ethanol). The amount of fluorescent product released by MUNANA hydrolysis (4-MU) was measured in a Tecan spectrophotometer with excitation and emission wavelengths of 365 and 450 nm respectively.

Setting [1] is: Influenza A virus, H1N1, A549, 48 h.

Take `COc1cccc(C(=O)Nc2sc3c(c2C(=O)O)CCC(C(C)(C)C)C3)c1` (centres unmarked) [#2]: the IC50 under setting [1] stood at 70 nM.

As for `COc1ccc(C(=O)Nc2sc3c(c2C(=O)O)CCC(C(C)(C)C)C3)cc1OC` (centres unmarked) [#3], it took 55 nM to reach half-maximal inhibition under setting [1] (IC50).

Molecule `COc1cc(C(=O)Nc2sc3c(c2C(=O)O)CCC(C(C)(C)C)C3)cc(OC)c1OC` (centres unmarked) [#4] registered an IC50 under setting [1] of 1070 nM.

On to `COc1ccc(C(=O)Nc2sc3c(c2C(=O)O)CCC(C(C)(C)C)C3)c(F)c1` (centres unmarked) [#5], for which inhibition under setting [1] was half-maximal at 60 nM (IC50).

As to `COc1ccc(C(=O)Nc2sc3c(c2C(=O)O)CCC(C(C)(C)C)C3)c(F)c1F` (centres unmarked) [#6], the IC50 under setting [1] worked out at 90 nM.

Turning to `CC(C)(C)C1CCc2c(sc(NC(=O)c3ccc(OC(F)F)cc3)c2C(=O)O)C1` (centres unmarked) [#7], under setting [1], the IC50 is 34.6 nM.

In the case of `CC(C)(C)C1CCc2c(sc(NC(=O)c3ccc(OC(F)(F)F)cc3)c2C(=O)O)C1` (centres unmarked) [#8], the midpoint of inhibition under setting [1], the IC50, lay at 38.5 nM. This IC50 and that of the molecule before are within 1.5-fold of each other.

Under setting [1], `CC(C)(C)C1CCc2c(sc(NC(=O)c3ccc(N4CCOCC4)cc3)c2C(=O)O)C1` (centres unmarked) [#9] gave an IC50 of 70 nM.

Turning to `CC(C)(C)OC(=O)NCCCOc1ccc(C(=O)Nc2sc3c(c2C(=O)O)CCC(C(C)(C)C)C3)cc1` (centres unmarked) [#11], under setting [1], the IC50 was 140 nM.

In the case of `CC(C)(C)C1CCc2c(sc(NC(=O)c3ccc(OCCO)cc3)c2C(=O)O)C1` (centres unmarked) [#12], half-maximal inhibition under setting [1] (IC50) required 450 nM.

Regarding `O=C(Nc1sc2c(c1C(=O)O)C1CCC2C1)c1ccccc1` (centres unmarked) [#28], the IC50 turned out to be 1270 nM.

For `Cc1ccccc1C(=O)Nc1sc2c(c1C(=O)O)CCC(c1ccccc1)C2` (centres unmarked) [#45], the IC50 under setting [1] was found to be 338 nM.

Turning to `O=C(Nc1sc2c(c1C(=O)O)CCC(c1ccccc1)C2)c1ccccc1` (centres unmarked) [#47A], inhibition was half-maximal at 40 nM (IC50).

On to `O=C(Nc1sc2c(c1C(=O)O)CCC(c1ccccc1)C2)c1ccccc1` (centres unmarked) [#47B], for which the IC50 amounted to 70 nM.

With `COc1ccc(C(=O)Nc2sc3c(c2C(=O)O)CCC(c2ccccc2)C3)cc1OC` (centres unmarked) [#48], half-maximal inhibition under setting [1] (IC50) was put at 90 nM.

Molecule `O=C(Nc1sc2c(c1C(=O)O)CCC(c1ccccc1)C2)c1ccc(O)cc1` (centres unmarked) [#49] gave an IC50 under setting [1] of 410 nM.

Molecule `O=C(Nc1sc2c(c1C(=O)O)CCC(c1ccccc1)C2)c1ccc(OCCO)cc1` (centres unmarked) [#50] came in with an IC50 under setting [1] of 90 nM.

Turning to `COCCOc1ccc(C(=O)Nc2sc3c(c2C(=O)O)CCC(c2ccccc2)C3)cc1` (centres unmarked) [#51], half-maximal inhibition under setting [1] (IC50) was put at 38 nM. Against the preceding molecule, the IC50 is about 2.4-fold lower.

With `Cc1cc(F)ccc1N1CCc2c(sc(NC(=O)c3ccccc3)c2C(=O)O)C1` [#53], the IC50 under setting [1] is 140 nM.

In turn, `COc1ccc(C(=O)Nc2sc3c(c2C(=O)O)CCN(c2ccc(F)cc2C)C3)c(F)c1` [#55] displayed an IC50 under setting [1] of 410 nM. Against the preceding molecule, the IC50 is about 2.9-fold higher.

In turn, `O=C(Nc1sc2c(c1C(=O)O)CCN(c1ccc(F)cc1F)C2)c1ccccc1` [#56] registered an IC50 under setting [1] of 150 nM.

`Cc1ccccc1N1CCc2c(sc(NC(=O)c3ccccc3)c2C(=O)O)C1` [#57] had a 50% inhibitory concentration (IC50) under setting [1] of 210 nM.

For `CC(C)(C)C1CCc2c(sc(NC(=O)c3ccccc3)c2C(=O)O)C1` (centres unmarked) [#66], the IC50 turned out to be 69.3 nM.

`CC(C)(C)C1CCc2c(sc(NC(=O)c3ccccc3)c2C(=O)O)C1` (centres unmarked) [#67]: the IC50 worked out at 91.7 nM.

`CC(C)(C)C1CCc2c(sc(NC(=O)c3ccc(F)cc3)c2C(=O)O)C1` (centres unmarked) [#68] showed an IC50 under setting [1] of 120 nM.

In turn, `CC1CCCc2sc(NC(=O)c3ccc(N4CCOCC4)cc3)c(C(=O)O)c21` (centres unmarked) [#70] had an IC50 under setting [1] of 146 nM.

Under setting [1], `CC(C)(C)C1CCc2c(sc(NC(=O)c3ccccn3)c2C(=O)O)C1` (centres unmarked) [#72] showed an IC50 of 170 nM. The IC50 values of the last two molecules are within 1.5-fold of each other.

Regarding `CC(C)(C)C1CCc2c(sc(NC(=O)c3ccccc3F)c2C(=O)O)C1` (centres unmarked) [#73], half-maximal inhibition (IC50) required 180 nM.

Under setting [1], `CC1CCCc2sc(NC(=O)c3ccc(OC(F)F)cc3)c(C(=O)O)c21` (centres unmarked) [#75] yielded an IC50 of 210 nM. This counts as sub-micromolar.

For `COc1ccc(C(=O)Nc2sc3c(c2C(=O)O)C(C)CCC3)c(F)c1` (centres unmarked) [#76], the IC50 under setting [1] was 218 nM. This IC50 and that of the molecule before are within 1.5-fold of each other.

Molecule `O=C(Nc1sc2c(c1C(=O)O)CCCC2)c1ccccc1` [#77] displayed an IC50 under setting [1] of 260 nM.

The molecule `CC1CCCc2sc(NC(=O)c3ccccc3)c(C(=O)O)c21` (centres unmarked) [#79] registered an IC50 of 292 nM. In other words, the sub-micromolar range.

For the molecule `COc1ccc(C(=O)Nc2sc3c(c2C(=O)O)C(C)CCC3)cc1OC` (centres unmarked) [#81], the IC50 under setting [1] amounted to 339 nM.

As to `CC(C)(C)C1CCc2c(sc(NC(=O)c3cccc(F)c3)c2C(=O)O)C1` (centres unmarked) [#83], under setting [1], the IC50 was determined as 380 nM.

`O=C(Nc1sc2c(c1C(=O)O)CCCCC2)c1ccccc1` [#84] yielded an IC50 under setting [1] of 400 nM. The IC50 values of the last two molecules are within 1.5-fold of each other.

For `Cc1ccccc1C(=O)Nc1sc2c(c1C(=O)O)CCC(C)C2` (centres unmarked) [#86], the IC50 under setting [1] came to 410 nM.

As to `Cc1ccccc1C(=O)Nc1sc2c(c1C(=O)O)CCC(C(C)(C)C)C2` (centres unmarked) [#87], half-maximal inhibition (IC50) was put at 445 nM.

`CC1CCCc2sc(NC(=O)c3ccccc3)c(C(=O)O)c21` (centres unmarked) [#88]: half-maximal inhibition (IC50) was put at 547 nM.

Under setting [1], `CC1CCCCC1C(=O)Nc1sc2c(c1C(=O)O)CCC(C(C)(C)C)C2` (centres unmarked) [#89] registered an IC50 of 590 nM.

Under setting [1], `COc1ccc(C(=O)Nc2sc3c(c2C(=O)O)CCC(C(C)(C)C)C3)nc1` (centres unmarked) [#91] had a half-maximal inhibitory concentration (IC50) of 620 nM.

`O=C(Nc1sc2c(c1C(=O)O)CCN(c1ccc(C(F)(F)F)cc1)C2)c1ccccc1` [#92] yielded an IC50 under setting [1] of 660 nM.

Under setting [1], `CC(=O)Nc1ccc(C(=O)Nc2sc3c(c2C(=O)O)CCC(C(C)(C)C)C3)cc1` (centres unmarked) [#93] displayed an IC50 of 660 nM.

The molecule `Cc1ccccc1C(=O)Nc1sc2c(c1C(=O)O)CCCC2` [#95] returned an IC50 under setting [1] of 723 nM.

As to `CC(C)(C)C1CCc2c(sc(NC(=O)c3ccccc3C(F)(F)F)c2C(=O)O)C1` (centres unmarked) [#97], the IC50 under setting [1] was 800 nM.

`CC(C)(C)C1CCc2c(sc(NC(=O)c3ccc4c(c3)OC(F)(F)O4)c2C(=O)O)C1` (centres unmarked) [#99] had an IC50 under setting [1] of 830 nM.

`CC(C)(C)C1CCc2c(sc(NC(=O)c3ccccc3C(F)(F)F)c2C(=O)O)C1` (centres unmarked) [#100]: the IC50 was found to be 873 nM. In other words, the sub-micromolar range.

Under setting [1], `Cn1cc(C(=O)Nc2sc3c(c2C(=O)O)CCC(C(C)(C)C)C3)cn1` (centres unmarked) [#101] displayed an IC50 of 943 nM.

Molecule `CC1CCCc2sc(NC(=O)c3cccc(OC(F)F)c3)c(C(=O)O)c21` (centres unmarked) [#102] registered an IC50 under setting [1] of 970 nM.

Under setting [1], `COc1ccccc1C(=O)Nc1sc2c(c1C(=O)O)CCC(C(C)(C)C)C2` (centres unmarked) [#104] registered an IC50 of 1050 nM.

Molecule `CC(C)(C)C(=O)Nc1sc2c(c1C(=O)O)CCC(c1ccccc1)C2` (centres unmarked) [#106] yielded an IC50 under setting [1] of 1100 nM.

In turn, `O=C(Nc1sc2c(c1C(=O)O)C(c1ccccc1)CCC2)c1ccc(OC(F)F)cc1` (centres unmarked) [#108] gave an IC50 under setting [1] of 1170 nM.

The molecule `CC(C)(C)C1CCc2c(sc(NC(=O)c3ccccc3C(F)(F)F)c2C(=O)O)C1` (centres unmarked) [#109] showed an IC50 of 1200 nM.

The molecule `Cc1ccoc1C(=O)Nc1sc2c(c1C(=O)O)CCC(C(C)(C)C)C2` (centres unmarked) [#110] registered an IC50 under setting [1] of 1200 nM.

`Cc1ccccc1C(=O)Nc1sc2cc(C(C)(C)C)ccc2c1C(=O)O` [#111] showed an IC50 under setting [1] of 1370 nM. The IC50 values of the last two molecules are within 1.5-fold of each other.

`COc1ccc(C(=O)Nc2sc3c(c2C(=O)O)CCN(c2ccc(F)cc2)C3)cc1OC` [#113]: under setting [1], half-maximal inhibition (IC50) required 1370 nM. In other words, the single-digit micromolar range.

Regarding `CC1(C)Cc2c(sc(NC(=O)c3ccccc3)c2C(=O)O)CO1` [#116], half-maximal inhibition under setting [1] (IC50) required 1700 nM. The IC50 values of the last two molecules are within 1.5-fold of each other.

In the case of `Cc1cccc(C)c1C(=O)Nc1sc2c(c1C(=O)O)CCC(C(C)(C)C)C2` (centres unmarked) [#118], under setting [1], the IC50 came out at 1950 nM. This IC50 and that of the molecule before are within 1.5-fold of each other.

As to `COc1ccc(C(=O)Nc2sc3c(c2C(=O)O)CC(C)(C)OC3)cc1OC` [#119], under setting [1], 2200 nM corresponded to half-maximal inhibition (IC50).

Consider `CC(C)(C)C1CCc2c(sc(NC(=O)N3CCCCC3)c2C(=O)O)C1` (centres unmarked) [#120], for which the IC50 under setting [1] amounted to 2270 nM.

As to `Cc1ccccc1C(=O)Nc1sc2c(c1C(=O)O)CCC2` [#121], under setting [1], the IC50 came to 2350 nM. This IC50 and that of the molecule before are within 1.5-fold of each other.

`O=C(Nc1sc2c(c1C(=O)O)CCC(c1ccc(O)cc1)C2)c1ccccc1` (centres unmarked) [#122]: the IC50 under setting [1] is 2370 nM. This IC50 and that of the molecule before are within 1.5-fold of each other.

In turn, `CC(C)(C)C1CCc2c(sc(NC(=O)c3ccncc3)c2C(=O)O)C1` (centres unmarked) [#123] yielded an IC50 under setting [1] of 2700 nM. The IC50 values of the last two molecules are within 1.5-fold of each other.
